According to paper PMC10999543, “Identification of kinase modulators as host-directed therapeutics against intracellular methicillin-resistant Staphylococcus aureus” (Frontiers in Cellular and Infection Microbiology, 2024):
Where two headings read alike, the source gives them in different places.

Columns and labels:
[1] = test system: HeLa cells; assay: Compound screen by flow cytometry: HeLa cell count as surrogate readout of cell viability (z-scoreHeLa); type: cell-based, human; settings: for cell count rep 1 / z-scoreHeLa rep 1: replicate 1; for cell count rep 1 / cell count rep 2 / cell count rep 3 / z-scoreHeLa mean / z-scoreHeLa rep 1 / z-scoreHeLa rep 2 / z-scoreHeLa rep 3: HeLa cell count; for cell count rep 2 / z-scoreHeLa rep 2: replicate 2; for cell count rep 3 / z-scoreHeLa rep 3: replicate 3; for z-scoreHeLa mean: mean of 3 replicates
Procedure, shortened: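 The viability surrogate was the count of fixed HeLa cells by flow cytometry, converted to z-scores against DMSO controls with values deviating two-fold excluded. Before counting, cells had been infected with MRSA for 1 h and cleared of extracellular bacteria with gentamicin. They were then exposed overnight to kinase inhibitors in triplicate.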

[2] = test system: intracellular MRSA; type: cell-based, Staphylococcus aureus; settings: for %GFP+ rep 1 / z-scoreMRSA+ rep 1: replicate 1; for %GFP+ rep 1 / %GFP+ rep 2 / %GFP+ rep 3 / z-scoreMRSA+ mean / z-scoreMRSA+ rep 1 / z-scoreMRSA+ rep 2 / z-scoreMRSA+ rep 3: MRSA-infected HeLa cells; for %GFP+ rep 2 / z-scoreMRSA+ rep 2: replicate 2; for %GFP+ rep 3 / z-scoreMRSA+ rep 3: replicate 3; for z-scoreMRSA+ mean: mean of 3 replicates
Procedure, shortened: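 HeLa cells were infected with GFP-expressing MRSA (mean MOI 6.8) for 1 h, treated with 30 µg/ml gentamicin for 15 min, then incubated overnight at 37°C with kinase inhibitors and 5 µg/ml gentamicin. Flow cytometry gave % GFP-positive cells, with cell count as viability. Hits were z-score ≤ -2 (infection) and ≥ -3 (count) versus DMSO.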

[3] = Yes/No: effect without cell death

SMILES | cell count rep 1 ([1]; PKIS compounds raw data) | cell count rep 2 ([1]; PKIS compounds raw data) | cell count rep 3 ([1]; PKIS compounds raw data) | cell death ([1]; Yes/No call from z-scoreHeLa) | z-scoreHeLa mean ([1]; compound screen) | z-scoreHeLa rep 1 ([1]; compound screen) | z-scoreHeLa rep 2 ([1]; compound screen) | z-scoreHeLa rep 3 ([1]; compound screen) | %GFP+ rep 1 ([2]; PKIS compounds raw data) [%] | %GFP+ rep 2 ([2]; PKIS compounds raw data) [%] | %GFP+ rep 3 ([2]; PKIS compounds raw data) [%] | effect ([2]; Yes/No call from z-scoreMRSA+) | hit [2, 3] | z-scoreMRSA+ mean ([2]; compound screen) | z-scoreMRSA+ rep 1 ([2]; compound screen) | z-scoreMRSA+ rep 2 ([2]; compound screen) | z-scoreMRSA+ rep 3 ([2]; compound screen) | cell count rep 1 ([1]; PKIS compound screen raw data) | cell count rep 2 ([1]; PKIS compound screen raw data) | cell count rep 3 ([1]; PKIS compound screen raw data) | also measured
Nc1nonc1-c1nc2cnccc2n1C1CCCCC1 [SB-734117] | 2677 | 2902 | 5031 | No | -1.28 | -1.90 | -1.03 | -0.92 | 14.7 | 14.0 | 13.2 | No | No | -0.0455 | 0.49 | 0.17 | -0.79 |  |  |  | 
COc1ccc(COc2ccc(Cc3cnc(N)nc3N)cc2OC)cc1 [GW632580X] |  |  |  |  |  |  |  |  |  |  |  |  |  |  |  |  |  | 16746 | 34970 | 43497 | z-scoreHeLa mean ([1]; PKIS compound screen): -0.0017; z-scoreHeLa rep 1 ([1]; PKIS compound screen): -0.51; z-scoreHeLa rep 2 ([1]; PKIS compound screen): 0.0341; z-scoreHeLa rep 3 ([1]; PKIS compound screen): 0.47; cell death ([1]; PKIS compound screen, Yes/No call on z-scoreHeLa): No; %GFP+ rep 1 ([2]; PKIS compound screen raw data): 19.0%; %GFP+ rep 2 ([2]; PKIS compound screen raw data): 19.0%; %GFP+ rep 3 ([2]; PKIS compound screen raw data): 21.7%; z-scoreMRSA+ mean ([2]; PKIS compound screen): 0.36; z-scoreMRSA+ rep 1 ([2]; PKIS compound screen): 0.36; z-scoreMRSA+ rep 2 ([2]; PKIS compound screen): 0.14; z-scoreMRSA+ rep 3 ([2]; PKIS compound screen): 0.58; hit ([2]; PKIS compound screen, Yes/No call (effect without cell death)): No; effect ([2]; PKIS compound screen, Yes/No call on z-scoreMRSA+): No
O=C(Nc1n[nH]c2cc(-c3ccsc3)ccc12)C1CC1 [SB-732932] | 6278 | 6296 | 8200 | No | 1.60 | 1.39 | 1.54 | 1.87 | 25.2 | 22.2 | 22.6 | No | No | 0.001 | -0.0173 | -0.10 | 0.12 |  |  |  | 
COC(=O)Nc1nc2ccc(Oc3ccc(NC(=O)Nc4cc(C(F)(F)F)ccc4Cl)cc3)cc2[nH]1 [GW697465A] |  |  |  | No | 0.00465 | 0.21 | -0.31 | 0.12 |  |  |  | No | No | -0.59 | -0.44 | -0.59 | -0.75 | 4644 | 3894 | 5423 | %GFP+ rep 1 ([2]; PKIS compound screen raw data): 23.4%; %GFP+ rep 2 ([2]; PKIS compound screen raw data): 20.2%; %GFP+ rep 3 ([2]; PKIS compound screen raw data): 19.7%
